Results taken from US20260022143A1, “Cyclic Peptide Inhibitors of IL-23” (JANSSEN PHARMACEUTICA NV, priority 2022, published 2026).
Starred links: 1 amine or outer side, 2 acyl side, 3 side chain; linkers in the order of their positions; H or OH if unused. Positions of bridges follow the written chain, without caps; N, C: chain ends. Non-standard residues stand in square brackets, D forms with d. Residues, ends and D or L forms follow the SMILES beside them. *: point of attachment. Me3N+(CH2)2O(CH2)2O(CH2)2CO = C[N+](C)(C)CCOCCOCCC(=O)*; NH(CH2CH2O)2CH2CH2NMe3+ = C[N+](C)(C)CCOCCOCCN*; Trp(7-Me) = Cc1cccc2c(C[C@H](N)C(=O)O)c[nH]c12; dLys(Me3) = C[N+](C)(C)CCCC[C@@H](N)C(=O)O; X1 = CN(CC[C@H](N[*:1])C(=O)[*:2])[*:3]; 2Nal = N[C@@H](Cc1ccc2ccccc2c1)C(=O)O; Propanoyl(3,3,3-F3) = O=C(CC(F)(F)F)*; AEF = NCCOc1ccc(C[C@H](N)C(=O)O)cc1; X82 = C[N+](C)(C)CCOCCOCCOCCOCCN*; 3Pal = N[C@@H](Cc1cccnc1)C(=O)O; Lys(Me) = CNCCCC[C@H](N)C(=O)O; X7 = COCCOCCOCCOCCOCCOCCC(=O)*; Pen = CC(C)(S)[C@H](N)C(=O)O; Thp = NC1(C(=O)O)CCOCC1; Me2NCH2CH2 = CN(C)CC*; Sar = CNCC(=O)O

Assay: Exposed Polar Surface Area (EPSA)
Assay type: physicochemical
Details: SFC on Chirex 3014 column; sample 1 mM DMSO stock; read-out: EPSA
Method in brief: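 Chirex 3014 column, 35 °C, 4 mL/min; CO2/MeOH + 20 mM NH4 formate, 5→60% modifier at 20%/min. UV/MS detection. EPSA (Å^2) from retention time vs 8-standard calibration line; duplicates; 1 mM DMSO stock injected undiluted.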

Question: Which EPSA does the source give for `CC(=O)NCCCC[C@@H]1NC(=O)[C@H](Cc2c[nH]c3c(C)cccc23)NC(=O)[C@H]([C@@H](C)O)NC(=O)[C@H](CC(N)=O)NC(=O)[C@@H](NC(C)=O)C(C)(C)SSC(C)(C)[C@@H](C(=O)N[C@@H](Cc2ccc(OCCN)cc2)C(=O)N[C@@H](Cc2ccc3ccccc3c2)C(=O)NC2(C(=O)N[C@@H](CCC(=O)O)C(=O)N[C@@H](CC(N)=O)C(=O)N[C@@H](Cc3cccnc3)C(=O)N(C)CC(=O)NCCOCCOCC[N+](C)(C)C)CCOCC2)NC1=O` [compound 134] (Ac-[Pen]NT[Trp(7-Me)]K(Ac)[Pen][AEF][2Nal][Thp]EN[3Pal][Sar]-{NH(CH2CH2O)2CH2CH2NMe3+}; disulfide 1-6) here?
Answer: 159 A^2

Question: For `Cc1cccc2c(C[C@@H]3NC(=O)[C@H]([C@@H](C)O)NC(=O)[C@H](CC(N)=O)NC(=O)[C@@H](NC(=O)CCOCCOCC[N+](C)(C)C)C(C)(C)SSC(C)(C)[C@@H](C(=O)N[C@@H](Cc4ccc(OCCN)cc4)C(=O)N[C@@H](Cc4ccc5ccccc5c4)C(=O)NC4(C(=O)N[C@@H](CCC(=O)N(C)C)C(=O)N[C@@H](CC(N)=O)C(=O)N[C@@H](Cc5cccnc5)C(=O)N(C)CC(N)=O)CCOCC4)NC(=O)[C@H](CCC(=O)N(C)C)NC3=O)c[nH]c12` [compound 137, cPEG3aCO-Pen(3)-N-T-7MeW-Q(N(Me)2)-Pen(3)-AEF-2Nal-THP-Q(N(Me)2)-N-3Pya-Sar-CONH2] ({Me3N+(CH2)2O(CH2)2O(CH2)2CO}-[Pen]NT[Trp(7-Me)]E(NMe2)[Pen][AEF][2Nal][Thp]E(NMe2)N[3Pal][Sar]-NH2; disulfide 1-6), which EPSA is on record?
Answer: 160 A^2

Question: With `CC(=O)N[C@@H]1C(=O)N[C@@H](CC(N)=O)C(=O)N[C@@H]([C@@H](C)O)C(=O)N[C@@H](Cc2c[nH]c3c(C)cccc23)C(=O)N[C@@H](CCC(=O)N(C)C)C(=O)N[C@H](C(=O)N[C@@H](Cc2ccc(OCCN)cc2)C(=O)N[C@@H](Cc2ccc3ccccc3c2)C(=O)NC2(C(=O)N[C@@H](CCC(=O)N(C)C)C(=O)N[C@@H](CC(N)=O)C(=O)N[C@@H](Cc3cccnc3)C(=O)N(C)CC(N)=O)CCOCC2)C(C)(C)SSC1(C)C` [compound 138] (Ac-[Pen]NT[Trp(7-Me)]E(NMe2)[Pen][AEF][2Nal][Thp]E(NMe2)N[3Pal][Sar]-NH2; disulfide 1-6 (inferred)) as the compound, how does the EPSA read?
Answer: 159 A^2

Question: For `CC(=O)NCCCC[C@@H]1NC(=O)[C@H](Cc2c[nH]c3c(C)cccc23)NC(=O)[C@H]([C@@H](C)O)NC(=O)[C@H](CC(N)=O)NC(=O)[C@@H](NC(=O)[C@@H](CCCC[N+](C)(C)C)NC(=O)CC(F)(F)F)C(C)(C)SSC(C)(C)[C@@H](C(=O)N[C@@H](Cc2ccc(OCCN)cc2)C(=O)N[C@@H](Cc2ccc3ccccc3c2)C(=O)NC2(C(=O)N[C@@H](CCCCNC(C)=O)C(=O)N[C@@H](CC(N)=O)C(=O)N[C@@H](Cc3cccnc3)C(=O)N(C)CC(N)=O)CCOCC2)NC1=O` [compound 144] ({Propanoyl(3,3,3-F3)}-[dLys(Me3)][Pen]NT[Trp(7-Me)]K(Ac)[Pen][AEF][2Nal][Thp]K(Ac)N[3Pal][Sar]-NH2; disulfide 2-7), which EPSA is on record?
Answer: 161 A^2

Question: For `CC(=O)N(C)CCCC[C@@H]1NC(=O)[C@H](Cc2c[nH]c3c(C)cccc23)NC(=O)[C@H]([C@@H](C)O)NC(=O)[C@H](CC(=O)N(C)C)NC(=O)[C@@H](NC(=O)CCOCCOCC[N+](C)(C)C)C(C)(C)SSC(C)(C)[C@@H](C(=O)N[C@@H](Cc2ccc(OCCN)cc2)C(=O)N[C@@H](Cc2ccc3ccccc3c2)C(=O)NC2(C(=O)N[C@@H](CCC(=O)N(C)C)C(=O)N[C@@H](CC(N)=O)C(=O)N[C@@H](Cc3cccnc3)C(=O)N(C)CC(N)=O)CCOCC2)NC1=O` [compound 150, cPEG3aCO-Pen(3)-N(N(Me)2)-T-7MeW-K(NMeAc)-Pen(3)-AEF-2Nal-THP-Q(N(Me)2)-N-3Pya-Sar-CONH2] ({Me3N+(CH2)2O(CH2)2O(CH2)2CO}-[Pen]D(NMe2)T[Trp(7-Me)][Lys(Me)](Ac)[Pen][AEF][2Nal][Thp]E(NMe2)N[3Pal][Sar]-NH2; disulfide 1-6), which EPSA is on record?
Answer: 159 A^2

Question: For `Cc1cccc2c(C[C@@H]3NC(=O)[C@H]([C@@H](C)O)NC(=O)[C@H](CC(=O)N(C)C)NC(=O)[C@@H](NC(=O)CCOCCOCC[N+](C)(C)C)C(C)(C)SSC(C)(C)[C@@H](C(=O)N[C@@H](Cc4ccc(OCCN(C)C)cc4)C(=O)N[C@@H](Cc4ccc5ccccc5c4)C(=O)NC4(C(=O)N[C@@H](CCC(=O)N(C)C)C(=O)N[C@@H](CC(N)=O)C(=O)N[C@@H](Cc5cccnc5)C(=O)N(C)CC(=O)N(C)C)CCOCC4)NC(=O)[C@H](CCC(=O)N(C)C)NC3=O)c[nH]c12` [compound 154, cPEG3aCO-Pen(3)-N(N(Me)2)-T-7MeW-Q(N(Me)2)-Pen(3)-AEF(N(Me)2)-2Nal-THP-Q(N(Me)2)-N-3Pya-Sar-CON(Me)2] ({Me3N+(CH2)2O(CH2)2O(CH2)2CO}-[Pen]D(NMe2)T[Trp(7-Me)]E(NMe2)[Pen]Y(Me2NCH2CH2)[2Nal][Thp]E(NMe2)N[3Pal][Sar]-NMe2; disulfide 1-6), which EPSA is on record?
Answer: 144 A^2

Question: For `CC(=O)NCCCC[C@@H]1NC(=O)[C@H](Cc2c[nH]c3c(C)cccc23)NC(=O)[C@H]([C@@H](C)O)NC(=O)[C@H](CC(N)=O)NC(=O)[C@@H](NC(C)=O)C(C)(C)SSC(C)(C)[C@@H](C(=O)N[C@@H](Cc2ccc(OCCN)cc2)C(=O)N[C@@H](Cc2ccc3ccccc3c2)C(=O)NC2(C(=O)N[C@@H](CCCCNC(C)=O)C(=O)N[C@@H](CC(N)=O)C(=O)N[C@@H](Cc3cccnc3)C(=O)N(C)CC(=O)NCCOCCOCCOCCOCC[N+](C)(C)C)CCOCC2)NC1=O` [compound 155] (Ac-[Pen]NT[Trp(7-Me)]K(Ac)[Pen][AEF][2Nal][Thp]K(Ac)N[3Pal][Sar]-X82; disulfide 1-6 (inferred)), which EPSA is on record?
Answer: 150 A^2

Question: With `COCCOCCOCCOCCOCCOCCC(=O)N(C)CC[C@@H]1NC(=O)[C@H](Cc2c[nH]c3c(C)cccc23)NC(=O)[C@H]([C@@H](C)O)NC(=O)[C@H](CC(=O)N(C)C)NC(=O)[C@@H](NC(C)=O)C(C)(C)SSC(C)(C)[C@@H](C(=O)N[C@@H](Cc2ccc(OCCN)cc2)C(=O)N[C@@H](Cc2ccc3ccccc3c2)C(=O)NC2(C(=O)N[C@@H](CCC(=O)O)C(=O)N[C@@H](CC(N)=O)C(=O)N[C@@H](Cc3cccnc3)C(=O)N(C)CC(=O)N(C)C)CCOCC2)NC1=O` [compound 158, MeCO-Pen(3)-N(N(Me)2)-T-7MeW-Dab(NMeCOmPEG6)-Pen(3)-AEF-2Nal-THP-E-N-3Pya-Sar-CON(Me)2] (Ac-[Pen]D(NMe2)T[Trp(7-Me)][X1](X7)[Pen][AEF][2Nal][Thp]EN[3Pal][Sar]-NMe2; disulfide 1-6) as the compound, how does the EPSA read?
Answer: 160 A^2

Question: With `CC(=O)N(C)CCCC[C@H](NC(=O)C1(NC(=O)[C@H](Cc2ccc3ccccc3c2)NC(=O)[C@H](Cc2ccc(OCCN)cc2)NC(=O)[C@H]2NC(=O)[C@H](CCC(=O)N(C)C)NC(=O)[C@H](Cc3c[nH]c4c(C)cccc34)NC(=O)[C@H]([C@@H](C)O)NC(=O)[C@H](CC(N)=O)NC(=O)[C@@H](NC(=O)CCOCCOCC[N+](C)(C)C)C(C)(C)SSC2(C)C)CCOCC1)C(=O)N[C@@H](CC(N)=O)C(=O)N[C@@H](Cc1cccnc1)C(=O)N(C)CC(N)=O` [compound 168, cPEG3aCO-Pen(3)-N-T-7MeW-Q(N(Me)2)-Pen(3)-AEF-2Nal-THP-K(NMeAc)-N-3Pya-Sar-CONH2] ({Me3N+(CH2)2O(CH2)2O(CH2)2CO}-[Pen]NT[Trp(7-Me)]E(NMe2)[Pen][AEF][2Nal][Thp][Lys(Me)](Ac)N[3Pal][Sar]-NH2; disulfide 1-6) as the compound, how does the EPSA read?
Answer: 154 A^2

Question: For `CC(=O)N(C)CCCC[C@@H]1NC(=O)[C@H](Cc2c[nH]c3c(C)cccc23)NC(=O)[C@H]([C@@H](C)O)NC(=O)[C@H](CC(=O)N(C)C)NC(=O)[C@@H](NC(=O)CCOCCOCC[N+](C)(C)C)C(C)(C)SSC(C)(C)[C@@H](C(=O)N[C@@H](Cc2ccc(OCCN)cc2)C(=O)N[C@@H](Cc2ccc3ccccc3c2)C(=O)NC2(C(=O)N[C@@H](CCCCN(C)C(C)=O)C(=O)N[C@@H](CC(N)=O)C(=O)N[C@@H](Cc3cccnc3)C(=O)N(C)CC(N)=O)CCOCC2)NC1=O` [compound 169, cPEG3aCO-Pen(3)-N(N(Me)2)-T-7MeW-K(NMeAc)-Pen(3)-AEF-2Nal-THP-K(NMeAc)-N-3Pya-Sar-CONH2] ({Me3N+(CH2)2O(CH2)2O(CH2)2CO}-[Pen]D(NMe2)T[Trp(7-Me)][Lys(Me)](Ac)[Pen][AEF][2Nal][Thp][Lys(Me)](Ac)N[3Pal][Sar]-NH2; disulfide 1-6), which EPSA is on record?
Answer: 154 A^2

Question: Which EPSA does the source give for `CC(=O)N[C@@H]1C(=O)N[C@@H](CC(=O)N(C)C)C(=O)N[C@@H]([C@@H](C)O)C(=O)N[C@@H](Cc2c[nH]c3c(C)cccc23)C(=O)N[C@@H](CCCCN(C)C(C)=O)C(=O)N[C@H](C(=O)N[C@@H](Cc2ccc(OCCN)cc2)C(=O)N[C@@H](Cc2ccc3ccccc3c2)C(=O)NC2(C(=O)N[C@@H](CCCCN(C)C(C)=O)C(=O)N[C@@H](CC(N)=O)C(=O)N[C@@H](Cc3cccnc3)C(=O)N(C)CC(N)=O)CCOCC2)C(C)(C)SSC1(C)C` [compound 182, MeCO-Pen(3)-N(N(Me)2)-T-7MeW-K(NMeAc)-Pen(3)-AEF-2Nal-THP-K(NMeAc)-N-3Pya-Sar-CONH2] (Ac-[Pen]D(NMe2)T[Trp(7-Me)][Lys(Me)](Ac)[Pen][AEF][2Nal][Thp][Lys(Me)](Ac)N[3Pal][Sar]-NH2; disulfide 1-6) here?
Answer: 153 A^2

Question: Which EPSA does the source give for `CC(=O)NCCCC[C@@H]1NC(=O)[C@H](Cc2c[nH]c3c(C)cccc23)NC(=O)[C@H]([C@@H](C)O)NC(=O)[C@H](CC(N)=O)NC(=O)[C@@H](NC(C)=O)C(C)(C)SSC(C)(C)[C@@H](C(=O)N[C@@H](Cc2ccc(OCCNC(=O)CCOCCOCC[N+](C)(C)C)cc2)C(=O)N[C@@H](Cc2ccc3ccccc3c2)C(=O)NC2(C(=O)N[C@@H](CNC(C)=O)C(=O)N[C@@H](CC(N)=O)C(=O)N[C@@H](Cc3cccnc3)C(=O)N(C)CC(N)=O)CCOCC2)NC1=O` [compound 189] here?
Answer: 144 A^2
